Measurements reported in patent US11767323B2, “Tricyclic pyridone compounds as JAK2 V617F inhibitors” (Incyte Corporation, priority 2020, dated 2023).

Experiments:
[1] = biological target: catalytic domain (JH1, amino acids 808-1132) of human JAK2 (Homo sapiens (Human), UniProt O60674); test: JAK2 HTRF Enzyme Activity Assay; type: biochemical; conditions: JAK2 0.015 nM, ATP (30 μM or 1 mM), 60 minutes at 25° C.
[2] = biological target: pseudo-kinase domain (JH2, amino-acids 536-812) of human V617F mutant JAK2 (Homo sapiens (Human), UniProt O60674, F794H/V617F/W659A/W777A); test: JAK2 LanthaScreen JH2-V617F Binding Assay; conditions: JAK2 JH2-V617F 0.26 nM, 50 nM tracer, 1 hour at 25° C.; read-out: JH2 BIND V617F IC50
pseudo-kinase domain (JH2, amino-acids 536-812) of human V617F mutant JAK2, sequence (O60674 536-812 V617F/W659A/W777A/F794H): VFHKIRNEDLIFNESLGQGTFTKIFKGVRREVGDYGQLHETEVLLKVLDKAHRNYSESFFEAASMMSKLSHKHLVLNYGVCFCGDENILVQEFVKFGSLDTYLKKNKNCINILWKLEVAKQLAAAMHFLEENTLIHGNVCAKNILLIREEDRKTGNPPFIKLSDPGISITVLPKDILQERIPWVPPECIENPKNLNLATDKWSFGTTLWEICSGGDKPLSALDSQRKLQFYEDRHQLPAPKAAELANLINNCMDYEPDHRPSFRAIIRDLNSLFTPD
Outline: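 Serially diluted compounds are mixed with 0.26 nM protein, 50 nM fluorescent JAK2-JH2 tracer and 0.25 nM terbium-labelled streptavidin, then incubated 1 h at 25° C. LanthaScreen signal is read, and IC50 is fitted.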

[3] = biological target: pseudo-kinase domain (JH2, amino-acids 536-812) of human Wild Type JAK2 (Homo sapiens (Human), UniProt O60674, F794H/W659A/W777A); test: JAK2 LanthaScreen JH2-WT Binding Assay; conditions: JAK2 JH2-WT 0.145 nM, 50 nM tracer, 1 hour at 25° C.; read-out: JH2 BIND WT IC50
pseudo-kinase domain (JH2, amino-acids 536-812) of human Wild Type JAK2, sequence (O60674 536-812 W659A/W777A/F794H): as the sequence (O60674 536-812 V617F/W659A/W777A/F794H) above, with F82V counted along it
Outline: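 Biotinylated His-Avi-tagged JH2 construct carrying W659A/W777A/F794H surface mutations, 0.145 nM, incubated 1 h at 25° C with compound, 50 nM fluorescent JH2 tracer and 0.25 nM streptavidin-Tb in pH 7.5 Tris buffer. Non-specific binding defined with 2 mM ATP. TR-FRET read; IC50 from four-parameter fit.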

[4] = biological target: catalytic domain (JH1, amino acids 826-1132) of human JAK2 (Homo sapiens (Human), UniProt O60674); test: JAK2 LanthaScreen JH1 Binding Assay; conditions: JAK2 JH1 1.5 nM, 50 nM tracer, 2 hours at 25° C.; read-out: JH1 BIND IC50
catalytic domain (JH1, amino acids 826-1132) of human JAK2, sequence (O60674 826-1132): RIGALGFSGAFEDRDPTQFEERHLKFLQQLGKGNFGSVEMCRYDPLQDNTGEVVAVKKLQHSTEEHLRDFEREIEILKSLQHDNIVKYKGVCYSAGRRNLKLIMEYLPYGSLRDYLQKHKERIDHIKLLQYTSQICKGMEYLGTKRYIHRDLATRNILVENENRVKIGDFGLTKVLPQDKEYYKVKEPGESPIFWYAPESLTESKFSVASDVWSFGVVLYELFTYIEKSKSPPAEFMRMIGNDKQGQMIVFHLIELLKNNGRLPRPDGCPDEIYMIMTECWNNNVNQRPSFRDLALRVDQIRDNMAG
Outline: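 Reaction held 1.5 nM biotinylated FLAG-JAK2 JH1, 50 nM tracer and 0.5 nM streptavidin-Tb in pH 7.5 Tris buffer; 2 mM ATP defined nonspecific binding.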

catalytic domain (JH1, amino acids 808-1132) of human JAK2, sequence (O60674 808-1132): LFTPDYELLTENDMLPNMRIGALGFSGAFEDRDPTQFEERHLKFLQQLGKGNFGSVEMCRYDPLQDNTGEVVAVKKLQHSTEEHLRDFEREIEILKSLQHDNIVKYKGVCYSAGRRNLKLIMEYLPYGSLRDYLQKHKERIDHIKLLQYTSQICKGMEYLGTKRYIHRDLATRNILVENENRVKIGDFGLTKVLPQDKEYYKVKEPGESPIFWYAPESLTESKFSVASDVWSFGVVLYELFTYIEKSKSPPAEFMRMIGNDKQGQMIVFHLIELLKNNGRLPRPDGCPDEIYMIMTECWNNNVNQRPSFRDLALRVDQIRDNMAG

CN(C)C(=O)c1ccc(-c2c(-c3cnn(C)c3)[nH]c3ncc4c(cc(NC5CCC(CC#N)CC5)c(=O)n4C)c23)cc1 (stereo not shown) [Example 38, 4-(8-((4-(cyanomethyl)cyclohexyl)amino)-6-methyl-2-(1-methyl-1H-pyrazol-4-yl)-7-oxo-6,7-dihydro-3H-pyrrolo[3,2-f][1,7]naphthyridin-1-yl)-N,N-dimethylbenzamide] gave an IC50 [1] of at most 0.1 µM, an IC50 [2] of at most 0.1 µM and an IC50 [3] of at most 0.1 µM. For the same compound, the IC50 [4] was 0.1 to 0.5 µM.
CN(C)C(=O)c1ccc(-c2c(-c3cnn(C)c3)[nH]c3ncc4c(cc(N5CCC(S(C)(=O)=O)CC5)c(=O)n4C)c23)cc1 [Example 39, N,N-dimethyl-4-(6-methyl-2-(1-methyl-1H-pyrazol-4-yl)-8-(4-(methylsulfonyl)piperidin-1-yl)-7-oxo-6,7-dihydro-3H-pyrrolo[3,2-f][1,7]naphthyridin-1-yl)benzamide] gave an IC50 [1] of 0.1 to 0.5 µM, an IC50 [2] of at most 0.1 µM and an IC50 [3] of at most 0.1 µM. The IC50 [4] was 0.1 to 0.5 µM.
For COCCS(=O)(=O)C1CCN(c2cc3c4c(-c5ccc(C(=O)N(C)C)cc5)c(-c5cnn(C)c5)[nH]c4ncc3n(C)c2=O)CC1 [Example 40, 4-(8-(4-((2-Methoxyethyl)sulfonyl)piperidin-1-yl)-6-methyl-2-(1-methyl-1H-pyrazol-4-yl)-7-oxo-6,7-dihydro-3H-pyrrolo[3,2-f][1,7]naphthyridin-1-yl)-N,N-dimethylbenzamide], the IC50 [1] was 1 to 10 µM, the IC50 [2] was 0.1 to 0.5 µM and the IC50 [3] was 0.1 to 0.5 µM. It also gave an IC50 [4] of 1 to 10 µM.
With CN(C)C(=O)c1ccc(-c2c(-c3cnn(C)c3)[nH]c3ncc4c(cc(N5CCC6(CCOC6)CC5)c(=O)n4C)c23)cc1 [Example 41, N,N-dimethyl-4-(6-methyl-2-(1-methyl-1H-pyrazol-4-yl)-7-oxo-8-(2-oxa-8-azaspiro[4.5]decan-8-yl)-6,7-dihydro-3H-pyrrolo[3,2-f][1,7]naphthyridin-1-yl)benzamide] the IC50 [1] was 1 to 10 µM, the IC50 [2] was 0.5 to 1 µM and the IC50 [3] was 0.1 to 0.5 µM. The IC50 [4] was 1 to 10 µM.
COc1ccc(-c2c(-c3cnn(C)c3)[nH]c3ncc4c(cc(C(=O)N(C)C)c(=O)n4C)c23)cc1 [Example 42, 1-(4-Methoxyphenyl)-N,N,6-trimethyl-2-(1-methyl-1H-pyrazol-4-yl)-7-oxo-6,7-dihydro-3H-pyrrolo[3,2-f][1,7]naphthyridine-8-carboxamide] showed an IC50 [1] of 1 to 10 µM, an IC50 [2] of at most 0.1 µM and an IC50 [3] of at most 0.1 µM. The IC50 [4] was 1 to 10 µM.
In the case of CN(C)C(=O)c1cc2c3c(-c4ccc5c(cnn5C)c4)c(-c4cnn(C)c4)[nH]c3ncc2n(C)c1=O [Example 43, N,N,6-trimethyl-1-(1-methyl-1H-indazol-5-yl)-2-(1-methyl-1H-pyrazol-4-yl)-7-oxo-6,7-dihydro-3H-pyrrolo[3,2-f][1,7]naphthyridine-8-carboxamide], the IC50 [1] is reported as 1 to 10 µM, the IC50 [2] is reported as at most 0.1 µM and the IC50 [3] is reported as at most 0.1 µM. It also gave an IC50 [4] of 1 to 10 µM.
CN(C)C(=O)c1cc2c3c(-c4ccc(C5(C#N)CC5)cc4)c(-c4cnn(C)c4)[nH]c3ncc2n(C)c1=O [Example 44, 1-(4-(1-cyanocyclopropyl)phenyl)-N,N,6-trimethyl-2-(1-methyl-1H-pyrazol-4-yl)-7-oxo-6,7-dihydro-3H-pyrrolo[3,2-f][1,7]naphthyridine-8-carboxamide] gave an IC50 [1] of 1 to 10 µM, an IC50 [2] of at most 0.1 µM and an IC50 [3] of at most 0.1 µM. For the same compound, the IC50 [4] was 1 to 10 µM.
